This is an account of results in ChEMBL document CHEMBL1137316, “Discovery of S-(2-guanidylethyl)-isothiourea (VUF 8430) as a potent nonimidazole histamine H4 receptor agonist” (J Med Chem, 2006).

Activity calls are given as the source filed them. No cut-off for these calls is given here.

In test [1] the target is Histamine H4 receptor (Homo sapiens, UniProt Q9H3N8). The test can be described thus: Displacement of [3H]histamine from human histamine H4 receptor.
Test [2] deals with Histamine H2 receptor (Cavia porcellus) (UniProt P47747). In words: Activity at human histamine H2 receptor in guinea pig right atrium. In kind it is functional, tissue-based. The following applies: Cardiac atrium.
The target of test [3] is Histamine H2 receptor (Homo sapiens) (UniProt P25021). The test can be described thus: Agonist activity at human histamine H2 receptor. In kind it is functional.
Test [4] addresses T1, Histamine H3 receptor (Homo sapiens, UniProt Q9Y5N1). In words: Displacement of [3H]Nalpha-methylhistamine from human histamine H3 receptor expressed in SK-N-MC cells. In kind it is cell-based. A general note: Loss of bound radioactivity is the signal in a displacement assay; it reports binding, not function.
In test [5] the target is T1, Histamine H3 receptor. The test can be described thus: Agonist activity at human histamine H3 receptor in SK-N-MC cells assessed as inhibition of forskolin-induced cAMP-mediated CRE-beta galactosidase activity. In kind it is functional, cell-based.
The target of test [6] is Histamine H1 receptor (Homo sapiens) (UniProt P35367). In words: Agonist activity at human histamine H1 receptor at 100 uM. In kind it is functional.
Chain of Histamine H1 receptor (Homo sapiens) (P35367 whole entry): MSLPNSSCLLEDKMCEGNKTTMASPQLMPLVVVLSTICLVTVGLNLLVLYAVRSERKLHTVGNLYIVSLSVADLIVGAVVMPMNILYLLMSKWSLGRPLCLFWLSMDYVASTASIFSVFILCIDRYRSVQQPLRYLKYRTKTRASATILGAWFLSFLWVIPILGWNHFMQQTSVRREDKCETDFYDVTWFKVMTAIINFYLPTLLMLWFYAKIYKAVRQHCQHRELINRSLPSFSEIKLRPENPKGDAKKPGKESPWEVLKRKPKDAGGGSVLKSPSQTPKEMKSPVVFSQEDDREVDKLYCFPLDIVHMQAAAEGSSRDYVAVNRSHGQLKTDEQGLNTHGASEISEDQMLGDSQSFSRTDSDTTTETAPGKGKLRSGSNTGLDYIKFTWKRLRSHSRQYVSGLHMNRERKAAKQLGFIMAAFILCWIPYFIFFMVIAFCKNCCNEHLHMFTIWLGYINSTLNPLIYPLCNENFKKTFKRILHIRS

Chain of Histamine H4 receptor (Q9H3N8 whole entry): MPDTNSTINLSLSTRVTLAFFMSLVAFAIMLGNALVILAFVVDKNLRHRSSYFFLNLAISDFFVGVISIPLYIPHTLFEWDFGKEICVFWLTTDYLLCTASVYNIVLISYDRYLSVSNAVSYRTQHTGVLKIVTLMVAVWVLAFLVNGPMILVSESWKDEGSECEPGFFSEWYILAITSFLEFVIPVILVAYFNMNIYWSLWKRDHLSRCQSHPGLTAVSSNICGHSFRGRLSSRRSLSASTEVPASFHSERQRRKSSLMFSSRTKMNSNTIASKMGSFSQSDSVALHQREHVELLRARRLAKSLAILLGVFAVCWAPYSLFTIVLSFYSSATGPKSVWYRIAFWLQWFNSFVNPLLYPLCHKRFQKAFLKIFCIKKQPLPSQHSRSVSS
T1 sequence (Q9Y5N1 whole entry): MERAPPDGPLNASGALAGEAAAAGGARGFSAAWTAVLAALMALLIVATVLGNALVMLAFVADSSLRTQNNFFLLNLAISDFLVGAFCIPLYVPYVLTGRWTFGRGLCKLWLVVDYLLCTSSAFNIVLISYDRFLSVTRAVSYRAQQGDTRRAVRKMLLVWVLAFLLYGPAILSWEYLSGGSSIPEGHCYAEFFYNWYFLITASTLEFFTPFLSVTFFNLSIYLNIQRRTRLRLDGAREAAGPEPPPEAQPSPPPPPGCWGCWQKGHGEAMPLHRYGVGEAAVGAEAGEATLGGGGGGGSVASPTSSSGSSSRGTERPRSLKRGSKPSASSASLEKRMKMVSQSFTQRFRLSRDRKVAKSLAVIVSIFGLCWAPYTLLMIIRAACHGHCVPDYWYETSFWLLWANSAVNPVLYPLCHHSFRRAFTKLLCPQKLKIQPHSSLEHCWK
Chain of Histamine H2 receptor (Cavia porcellus) (P47747 whole entry): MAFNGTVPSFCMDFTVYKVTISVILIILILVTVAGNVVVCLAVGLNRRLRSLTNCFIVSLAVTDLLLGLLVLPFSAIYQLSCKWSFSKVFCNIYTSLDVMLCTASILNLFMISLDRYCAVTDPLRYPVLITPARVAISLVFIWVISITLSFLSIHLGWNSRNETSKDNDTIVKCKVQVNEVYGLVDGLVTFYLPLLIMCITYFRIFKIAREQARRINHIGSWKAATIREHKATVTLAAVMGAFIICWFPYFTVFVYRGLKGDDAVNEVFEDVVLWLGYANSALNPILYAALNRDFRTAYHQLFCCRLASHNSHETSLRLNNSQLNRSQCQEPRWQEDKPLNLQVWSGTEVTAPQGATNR
Chain of Histamine H2 receptor (Homo sapiens) (P25021 whole entry): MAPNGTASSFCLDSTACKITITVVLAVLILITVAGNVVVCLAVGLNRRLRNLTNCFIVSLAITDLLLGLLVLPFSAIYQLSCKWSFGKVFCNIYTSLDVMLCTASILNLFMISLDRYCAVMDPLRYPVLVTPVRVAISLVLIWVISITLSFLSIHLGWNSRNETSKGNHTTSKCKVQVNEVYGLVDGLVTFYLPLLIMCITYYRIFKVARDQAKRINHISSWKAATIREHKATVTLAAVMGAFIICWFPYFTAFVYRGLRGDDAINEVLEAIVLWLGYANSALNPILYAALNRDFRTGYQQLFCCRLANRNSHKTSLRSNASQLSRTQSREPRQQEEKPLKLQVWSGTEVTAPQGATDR

Broadly, the Ki is the dissociation constant of the complex between target and ligand, obtained from inhibition or displacement. A low value points to tighter binding. As for `N=C(N)SCCSC(=N)N`, the affinity in test [1] corresponds to a Ki of 0.251 µM. Same read-out and setting: with `N=C(N)NCCCSC(=N)N` the figure was 7.94 µM. For `N=C(N)NCCSC(=N)N`, in test [2], the Intrinsic activity was determined as 0.4 and the pD2 is 3.8. The same compound yielded an Activity in test [3] of 50%. Besides, the Ki in test [4] is 1 µM. Further, in test [5], the Intrinsic activity was found to be 1. Besides, the result in test [6] was inactive.

Compound `N=C(N)NCCCCCCSC(=N)N` showed an inhibition constant (Ki) in test [1] of 3.98 µM. The same measure, in the same setting: with `N=C(N)NCCCCSC(=N)N` the figure was 3.16 µM; with `N=C(N)NCCNC(=N)N`, 0.398 µM.
